In patent US10323000B2, “Indole derivatives and their use in neurodegenerative diseases” (priority 2014, dated 2019):
Read-outs that look alike come from different tables or passages of the source.

How the values were obtained:
[1] = molecular target: P2X7 (IL-1β release from THP-1 cells) (Homo sapiens (Human), UniProt Q99572); assay: IL-1β release assay; assay type: cell-based
Method in brief: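 THP-1 cells were differentiated with PMA 0.5 μM and primed 4 h with LPS 10 ng/ml. They were then pre-incubated 20 min with compound at 37° C and stimulated 30 min with BzATP 0.8 mM. Mature IL-1β released into the supernatant was quantified by sandwich ELISA.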

human P2X7 receptor = human P2X7 receptor (Homo sapiens (Human), UniProt Q99572); assay: Pore permeation assay (YO PRO dye uptake); assay type: cell-based
[2] = THP-1 cells, LPS primed, 0.8 mM BzATP, mature IL-1β by sandwich ELISA, read-out: hTHP-1/IL-ib IC50
[3] = HEK293 transfected with human P2X7, BzATP 10 uM, YO PRO dye uptake, read-out: hP2X7 IC50

P2X7 (IL-1β release from THP-1 cells), sequence (Q99572 whole entry): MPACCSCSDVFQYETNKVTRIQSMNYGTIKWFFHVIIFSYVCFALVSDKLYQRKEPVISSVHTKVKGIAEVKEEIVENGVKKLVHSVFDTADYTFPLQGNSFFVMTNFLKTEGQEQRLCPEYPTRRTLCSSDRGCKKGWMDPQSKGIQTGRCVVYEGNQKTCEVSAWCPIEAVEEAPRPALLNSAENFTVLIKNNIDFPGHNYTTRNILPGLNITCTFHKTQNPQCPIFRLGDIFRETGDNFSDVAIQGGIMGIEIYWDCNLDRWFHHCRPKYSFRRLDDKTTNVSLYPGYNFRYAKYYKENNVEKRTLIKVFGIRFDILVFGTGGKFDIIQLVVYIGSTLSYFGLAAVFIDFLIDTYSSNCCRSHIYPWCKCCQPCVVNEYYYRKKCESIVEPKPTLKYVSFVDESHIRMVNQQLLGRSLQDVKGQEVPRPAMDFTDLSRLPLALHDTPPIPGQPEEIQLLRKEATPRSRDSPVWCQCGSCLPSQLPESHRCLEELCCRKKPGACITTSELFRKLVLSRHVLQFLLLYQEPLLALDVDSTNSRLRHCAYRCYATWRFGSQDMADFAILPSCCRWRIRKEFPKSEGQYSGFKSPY
human P2X7 receptor, sequence (Q99572 whole entry): as above

| Structure (SMILES) | IC50 [1] [µM] | IC50 (human P2X7 receptor) [µM] | IC50 [1, 2] [µM] | IC50 (human P2X7 receptor; [3]) [µM] |
| --- | --- | --- | --- | --- |
| CN1C(=O)CC[C@@H]1Cn1cc(C(=O)NCC2CCC(F)(F)CC2)c2c(Cl)cccc21 [Compound 182, (R)-4-chloro-N-((4,4-difluorocyclohexyl)methyl)-1-((1-methyl-5-oxopyrrolidin-2-yl)methyl)-1H-indole-3-carboxamide] | 0.01 to 0.1 | 0.01 to 0.1 | – | – |
| CN1CCOC(Cn2cc(C(=O)NCC3CCC(F)(F)CC3)c3c(Cl)cccc32)C1 (stereo not drawn) [Compound 183, 4-chloro-N-((4,4-difluorocyclohexyl)methyl)-1-((4-methylmorpholin-2-yl)methyl)-1H-indole-3-carboxamide] | 0.01 to 0.1 | 0.01 to 0.1 | – | – |
| CN1CCOCC1Cn1cc(C(=O)NCC2CCC(F)(F)CC2)c2c(Cl)cccc21 (stereo not drawn) [Compound 184, 4-chloro-N-((4,4-difluorocyclohexyl)methyl)-1-((4-methylmorpholin-3-yl)methyl)-1H-indole-3-carboxamide] | 0.101 to 0.5 | 0.101 to 0.5 | – | – |
| O=C(NCC1CCC(F)(F)CC1)c1cn(CC(=O)N2CCCC2)c2cccc(Cl)c12 [Compound 185, 4-Chloro-1-(2-oxo-2-pyrrolidin-1-yl-ethyl)-1H-indole-3-carboxylic acid (4,4-difluoro-cyclohexylmethyl)-amide] | 0.01 to 0.1 | 0.01 to 0.1 | – | – |
| O=C(NC[C@@]1(O)CCCC(F)(F)C1)c1cn(CCN2CCCC2=O)c2cccc(Cl)c12 [Compound 186, (R)-4-chloro-N-((3,3-difluoro-1-hydroxycyclohexyl)methyl)-1-(2-(2-oxopyrrolidin-1-yl)ethyl)-1H-indole-3-carboxamide] | – | – | > 1 | > 1 |
| O=C(NC[C@]1(O)CCCC(F)(F)C1)c1cn(CCN2CCCC2=O)c2cccc(Cl)c12 [Compound 187, (S)-4-chloro-N-((3,3-difluoro-1-hydroxycyclohexyl)methyl)-1-(2-(2-oxopyrrolidin-1-yl)ethyl)-1H-indole-3-carboxamide] | 0.101 to 0.5 | 0.01 to 0.1 | – | – |
| O=C(NCC1(O)CCCC(F)(F)C1)c1cn(CCN2CCCC2=O)c2cccc(Cl)c12 (stereo not drawn) [Compound 188, 4-chloro-N-((3,3-difluoro-1-hydroxycyclohexyl)methyl)-1-(2-(2-oxopyrrolidin-1-yl)ethyl)-1H-indole-3-carboxamide] | 0.01 to 0.1 | 0.01 to 0.1 | – | – |
| O=C(NCC1CCC(F)(F)CC1)c1cn(CCN2CCCC2=O)c2cccc(Cl)c12 [Compound 189, 4-chloro-N-((4,4-difluorocyclohexyl)methyl)-1-(2-(2-oxopyrrolidin-1-yl)ethyl)-1H-indole-3-carboxamide] | 0.101 to 0.5 | 0.01 to 0.1 | – | – |
| O=C(NCC1CCC(F)(F)CC1)c1cn(CC(=O)N2CCOCC2)c2cccc(Cl)c12 [Compound 190, 4-Chloro-1-(2-morpholin-4-yl-2-oxo-ethyl)-1H-indole-3-carboxylic acid (4,4-difluoro-cyclohexylmethyl)-amide] | – | – | 0.101 to 0.5 | 0.101 to 0.5 |
| CC(C)N1CC[C@H]1Cn1cc(C(=O)NCC2CCC(F)(F)CC2)c2c(Cl)cccc21 [Compound 191, (S)-4-chloro-N-((4,4-difluorocyclohexyl)methyl)-1-((1-isopropylazetidin-2-yl)methyl)-1H-indole-3-carboxamide] | – | 0.101 to 0.5 | > 1 | – |
| O=C(NCC1CCC(F)(F)CC1)c1cn(CCN2CCCCC2)c2cccc(Cl)c12 [Compound 193, 4-chloro-N-((4,4-difluorocyclohexyl)methyl)-1-(2-(piperidin-1-yl)ethyl)-1H-indole-3-carboxamide] | 0.01 to 0.1 | 0.01 to 0.1 | – | – |
| O=C(NCC1CCC(F)(F)CC1)c1cn(CC(=O)N2CCCCC2)c2cccc(Cl)c12 [Compound 195, 4-Chloro-1-(2-oxo-2-piperidin-1-yl-ethyl)-1H-indole-3-carboxylic acid (4,4-difluoro-cyclohexylmethyl)-amide] | 0.101 to 0.5 | 0.01 to 0.1 | – | – |
| CC(C)N1CCCC1Cn1cc(C(=O)NCC2CCC(F)(F)CC2)c2c(Cl)cccc21 (stereo not drawn) [Compound 196, 4-chloro-N-((4,4-difluorocyclohexyl)methyl)-1-((1-isopropylpyrrolidin-2-yl)methyl)-1H-indole-3-carboxamide] | 0.101 to 0.5 | 0.01 to 0.1 | – | – |
| O=C(NCC1CCC(F)(F)CC1)c1cn(CC2CCCN2C2CC2)c2cccc(Cl)c12 (stereo not drawn) [Compound 197, 4-chloro-1-((1-cyclopropylpyrrolidin-2-yl)methyl)-N-((4,4-difluorocyclohexyl)methyl)-1H-indole-3-carboxamide] | 0.01 to 0.1 | 0.01 to 0.1 | – | – |
| O=C(NCC1CCC(F)(F)CC1)c1cn(CCO)c2cccc(C(F)(F)F)c12 [Compound 198, N-((4,4-difluorocyclohexyl)methyl)-1-(2-hydroxyethyl)-4-(trifluoromethyl)-1H-indole-3-carboxamide] | 0.01 to 0.1 | 0.101 to 0.5 | – | – |
| COCCn1cc(C(=O)NCC2CCC(F)(F)CC2)c2c(C(F)(F)F)cccc21 [Compound 199] | 0.101 to 0.5 | 0.101 to 0.5 | – | – |
| CC(C(=O)N(C)C)n1cc(C(=O)NCC2CCC(F)(F)CC2)c2c(Cl)cccc21 (stereo not drawn) [Compound 200, 4-chloro-N-((4,4-difluorocyclohexyl)methyl)-1-(1-(dimethylamino)-1-oxopropan-2-yl)-1H-indole-3-carboxamide] | 0.01 to 0.1 | – | – | < 0.01 |
| CC(C)N(C)C(=O)Cn1cc(C(=O)NCC2CCC(F)(F)CC2)c2c(Cl)cccc21 [Compound 203, 4-Chloro-1-[(isopropyl-methyl-carbamoyl)-methyl]-1H-indole-3-carboxylic acid (4,4-difluoro-cyclohexylmethyl)-amide] | 0.101 to 0.5 | 0.01 to 0.1 | – | – |
| CN(C)C(=O)Cn1cc(C(=O)NCC2(O)CCC(F)(F)CC2)c2c(Cl)cccc21 [Compound 205, 4-Chloro-1-dimethylcarbamoylmethyl-1H-indole-3-carboxylic acid (4,4-difluoro-1-hydroxy-cyclohexylmethyl)-amide] | 0.01 to 0.1 | – | – | < 0.01 |
| CCN(CC)C(=O)Cn1cc(C(=O)NCC2CCC(F)(F)CC2)c2c(Cl)cccc21 [Compound 207, 4-Chloro-1-diethylcarbamoylmethyl-1H-indole-3-carboxylic acid (4,4-difluoro-cyclohexylmethyl)-amide] | 0.101 to 0.5 | 0.01 to 0.1 | – | – |
| CN(C)C(=O)Cn1cc(C(=O)NCC2CCC(F)(F)CC2)c2c(Cl)cccc21 [Compound 208, 4-Chloro-1-dimethylcarbamoylmethyl-1H-indole-3-carboxylic acid (4,4-difluoro-cyclohexylmethyl)-amide] | 0.01 to 0.1 | – | – | < 0.01 |
